Assays:
Human OX2 receptor [1] = biological target: T1, Human OX2 receptor (Homo sapiens (Human), UniProt O43614); assay: [3H]-radioligand binding assay, OX2; conditions: for pKi average OX2: competition binding, membranes of SF21 cells, Ki by Cheng-Prusoff
Description: (§1) Cloning, Baculovirus generation, large-scale infection of SF21 cells and membrane preparation. Human OX1 or OX2 receptor were cloned into Invitrogen's (ThermoFisher Scientific, UK) Bac-to-Bac Baculovirus Expression System. P0 baculovirus was generated by transfecting SF9 cells with bacmid DNA using Cellfectin® II transfection reagent (ThermoFisher Scientific, UK, Catalog number 10362-100). Following P0 generation P1 virus was then generated ready for large scale infection and membrane preparation. SF21 cells were grown in expression medium ESF921 (Expression Systems, USA, catalog number 96-001-01) supplemented with 10% heat-inactivated FBS and 1% Pen/Strep and were infected at a cell density of 2.5×10^6 cells/mL and a multiplicity of infection of 1.0 for both human OX1R and OX2R. Incubation was carried out at over 48 h in a shaking incubator set at 27° C. The cell culture was then centrifuged at 2,500 rcf for 10 min at 4° C. The pellets were resuspended in cold PBS supplemented with Roche's Complete EDTA-free protease inhibitor cocktail tablets (Roche Applied Sciences, catalog number 05056489001), 1 mM PMSF and 1 mM EDTA. The resuspended cell paste was then centrifuged at 3,273 rcf for 12 min at 4° C. The supernatant was discarded and the pellet frozen at −80° C. The cell pellet from a 4 L culture was resuspended in buffer containing 50 mM HEPES pH 7.5, 150 mM NaCl, 8 Roche EDTA-Free protease inhibitor cocktail tablets and 1 mM PMSF. The suspension was left stirring at rt for 1 h and then homogenised for 90 s at 9,500 rpm using a VDI 25 (VWR, USA) homogeniser. The cells were then lysed using a Microfluidiser processor M-110L Pneumatic (Microfluidics, USA) at 60 PSI and membranes collected by ultracentrifugation at 204.7 k×g for 1 h. The supernatant was discarded and the pellet was resuspended and homogenised in 90 s at 9,500 rpm in 50 mL (25 mL for each 2 L culture) of buffer containing 50 mM Hepes pH 7.5, 150 mM NaCl, 3 Roche EDTA-free protease inhibitor cocktail tablets and 1 mM PMSF. The resulting membranes were then stored at −80° C.
(§2) [^3H]-radioligand binding assay. After thawing, membrane homogenates were resuspended in the binding buffer (8.5 mM HEPES, pH 7.4, 1.3 mM CaCl2, 1.2 mM MgSO4, 118 mM NaCl, 4.7 mM KCl, 4 mM NaHCO3, 1.2 mM KH2PO4, 11 mM glucose) to a final assay concentration of 6.4 μg (OX1) or 1.4 μg (OX2) protein per well. Saturation isotherms were determined by the addition of various concentrations (0-30 nM) of [^3H]-4-(2,6-difluoro-4-methoxybenzyl)-2-(5,6-dimethoxypyridin-3-yl)-2H-1,2,4-benzothiadiazin-3(4H)-one 1,1-dioxide (Christopher et al, MedChemComm., 2015, 6, 947-955) in a total reaction volume of 250 μL for 90 min at rt. At the end of the incubation, membranes were filtered onto a 96-well GF/B filter pre-incubated with 0.5% polyethylenimine, with a Tomtec cell harvester and washed 5 times with 0.5 mL distilled water. Non-specific binding (NSB) was measured in the presence of 3.33 μM [4-(5-chloro-1,3-benzoxazol-2-yl)-7-methyl-1,4-diazepan-1-yl][5-methyl-2-(2H-1,2,3-triazol-2-yl)phenyl]methanone (Wertz et al, Angew. Chem. Int. Ed., 2011, 50, 11511-11515). Radioactivity on the filter was counted (1 min) on a Microbeta radiometric plate counter (Perkin Elmer) after addition of 50 μL of scintillation fluid (LabLogic: Part #SG-BXX-14). […] IC50 values were derived from the inhibition curve and the equilibrium dissociation constant (Ki) values were calculated using the Cheng-Prusoff equation.

Human OX2 receptor [2] = biological target: T1, Human OX2 receptor; assay: IPone accumulation assay, CHO cells expressing OX2; format: cell-based; conditions: antagonism of orexin A (EC80 40 nM)-induced inositol phosphate turnover, read-out: fpKb average OX2 (converted)
Description: Generation of CHO stable cell lines expressing the human OX1R and OX2R. Stable cell lines for the human OX1R and OX2R receptors were generated through the transfection of CHO cells using the transfection reagent Genejuice (Novagen number 70967) and cDNA coding for either the human OX1R or OX2R. Cells were cultured in Sigma Nutrient Mixture F-12 Ham media (catalog number N6658) supplemented with 10% heat-inactivated FBS. Forty-eight hours after transfection, cells were harvested and placed under geneticin selection by culturing in Sigma Nutrient Mixture F-12 Ham media supplemented with 10% heat-inactivated FBS and geneticin (ThermoFisher Catalog number: 10131035). Selection of the final stable clone for each receptor was made on the basis of receptor expression, assay signal to noise and robustness though increasing passage. Selected clones for the human OX1R and OX2R were then frozen down into liquid nitrogen using Cell Freezing Medium-DMSO (Sigma-Aldrich catalog number: C6164). IPone accumulation assay. A CHO cell line stably expressing either human OX1 or OX2 receptor was used with the IPone HTRF assay kit (CisBio: Part #62[…]) to measure receptor activation. The assay was optimised to measure the ability (potency; fpKb) of antagonists to reduce agonist (orexin A)-induced inositol phosphate turnover. Briefly, cells were plated onto half area 96-well white walled plates at a density of 12,500 cells/well. Sixteen hours post-plating cell growth media was replaced with antagonist concentration-response curve diluted in stimulation buffer (supplied with the kit). Cells were incubated in a humidified incubator (37° C.) for 30 min before an EC80 challenge concentration ( 20 nM (OX1) and 40 nM (OX2)) of orexin A (Tocris catalogue number 1455). After 30 min stimulation in a humidified incubator (37° C.) the assay was terminated by the addition of detection mixture as per manufacturer's instructions. The concentration of compound which reduced orexin-A stimulated turnover of inositol phosphates by 50% (IC50) was calculated by fitting to a four parameter sigmoidal dose response curve. The IC50 values were converted to fpKB values using the orexin A pEC50 value estimated on each plate as well as the challenge concentration interpolated from the orexin A control curve.

Human OX1 receptor [3] = biological target: T2, Human OX1 receptor (Homo sapiens (Human), UniProt O43613); assay: [3H]-radioligand binding assay, OX1; conditions: for pKi average OX1: competition binding, membranes of SF21 cells, Ki by Cheng-Prusoff
T2 sequence (O43613 whole entry): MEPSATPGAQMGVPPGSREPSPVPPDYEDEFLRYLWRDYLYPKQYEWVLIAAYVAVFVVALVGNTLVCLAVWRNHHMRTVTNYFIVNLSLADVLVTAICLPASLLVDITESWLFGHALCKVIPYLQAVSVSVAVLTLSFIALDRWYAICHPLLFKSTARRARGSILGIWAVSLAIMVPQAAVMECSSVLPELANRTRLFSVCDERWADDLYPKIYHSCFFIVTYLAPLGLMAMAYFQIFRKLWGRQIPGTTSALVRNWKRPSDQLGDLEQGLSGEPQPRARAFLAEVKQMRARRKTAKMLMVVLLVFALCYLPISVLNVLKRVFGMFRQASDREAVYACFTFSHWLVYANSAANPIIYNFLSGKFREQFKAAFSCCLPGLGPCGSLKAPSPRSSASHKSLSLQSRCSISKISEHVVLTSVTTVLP
Description: as §1, §2

Human OX1 receptor [4] = biological target: T2, Human OX1 receptor; assay: IPone accumulation assay, CHO cells expressing OX1; format: cell-based; conditions: antagonism of orexin A (EC80 ~20 nM)-induced inositol phosphate turnover, read-out: fpKb average OX1 (converted)
Description: Generation of CHO stable cell lines expressing the human OX1R and OX2R. Stable cell lines for the human OX1R and OX2R receptors were generated through the transfection of CHO cells using the transfection reagent Genejuice (Novagen number 70967) and cDNA coding for either the human OX1R or OX2R. Cells were cultured in Sigma Nutrient Mixture F-12 Ham media (catalog number N6658) supplemented with 10% heat-inactivated FBS. Forty-eight hours after transfection, cells were harvested and placed under geneticin selection by culturing in Sigma Nutrient Mixture F-12 Ham media supplemented with 10% heat-inactivated FBS and geneticin (ThermoFisher Catalog number: 10131035). Selection of the final stable clone for each receptor was made on the basis of receptor expression, assay signal to noise and robustness though increasing passage. Selected clones for the human OX1R and OX2R were then frozen down into liquid nitrogen using Cell Freezing Medium-DMSO (Sigma-Aldrich catalog number: C6164).
IPone accumulation assay. A CHO cell line stably expressing either human OX1 or OX2 receptor was used with the IPone HTRF assay kit (CisBio: Part #62IPAPEJ) to measure receptor activation. The assay was optimised to measure the ability (potency; fpKb) of antagonists to reduce agonist (orexin A)-induced inositol phosphate turnover. Briefly, cells were plated onto half area 96-well white walled plates at a density of 12,500 cells/well. Sixteen hours post-plating cell growth media was replaced with antagonist concentration-response curve diluted in stimulation buffer (supplied with the kit). Cells were incubated in a humidified incubator (37° C.) for 30 min before an EC80 challenge concentration (˜20 nM (OX1) and 40 nM (OX2)) of orexin A (Tocris catalogue number 1455). After 30 min stimulation in a humidified incubator (37° C.) the assay was terminated by the addition of detection mixture as per manufacturer's instructions. The concentration of compound which reduced orexin-A stimulated turnover of inositol phosphates by 50% (IC50) was calculated by fitting to a four parameter sigmoidal dose response curve. The IC50 values were converted to fpKB values using the orexin A pEC50 value estimated on each plate as well as the challenge concentration interpolated from the orexin A control curve.

T1 sequence (O43614 whole entry): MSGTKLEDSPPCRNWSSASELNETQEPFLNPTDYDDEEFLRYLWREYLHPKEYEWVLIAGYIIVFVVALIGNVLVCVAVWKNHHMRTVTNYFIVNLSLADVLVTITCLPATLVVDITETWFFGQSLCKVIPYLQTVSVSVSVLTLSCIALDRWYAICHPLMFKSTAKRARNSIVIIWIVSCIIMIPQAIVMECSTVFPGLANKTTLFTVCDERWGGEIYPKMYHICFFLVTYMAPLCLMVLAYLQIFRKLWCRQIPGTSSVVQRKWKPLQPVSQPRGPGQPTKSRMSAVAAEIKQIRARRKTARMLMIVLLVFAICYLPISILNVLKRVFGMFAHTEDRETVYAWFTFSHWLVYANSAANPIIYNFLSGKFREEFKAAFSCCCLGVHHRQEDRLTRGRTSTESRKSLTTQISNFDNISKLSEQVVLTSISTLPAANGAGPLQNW

CC(=O)Nc1cc(F)c(-n2nccn2)c(C(=O)N[C@H]2CCC[C@@H]2COc2ccc(F)cc2)c1 [Example 1, 5-acetamido-3-fluoro-N-[(1S,2S)-2-[(4-fluorophenoxy)methyl]cyclopentyl]-2-(triazol-2-yl)benzamide]
pKi average OX2 (Human OX2 receptor [1]): 7.3
Kb (Human OX2 receptor [2]): > 63.1 nM
pKi average OX1 (Human OX1 receptor [3]): 9.0
Kb (Human OX1 receptor [4]): 0.794 nM

CC(=O)Nc1ccc(-c2ncccn2)c(C(=O)N[C@H]2CCC[C@@H]2COc2ccc(F)cc2)c1F [Example 2, 3-acetamido-2-fluoro-N-[(1S,2S)-2-[(4-fluorophenoxy)methyl]cyclopentyl]-6-pyrimidin-2-yl-benzamide]
pKi average OX2 (Human OX2 receptor [1]): 5.6
Kb (Human OX2 receptor [2]): > 2510 nM
pKi average OX1 (Human OX1 receptor [3]): 7.7
Kb (Human OX1 receptor [4]): 50.1 nM

CC(=O)Nc1ccc(-n2nccn2)c(C(=O)N[C@H]2CCC[C@@H]2COc2ccc(F)cc2)n1 [Example 3, 6-acetamido-N-[(1S,2S)-2-[(4-fluorophenoxy)methyl]cyclopentyl]-3-(triazol-2-yl)pyridine-2-carboxamide]
pKi average OX2 (Human OX2 receptor [1]): 5.4
Kb (Human OX2 receptor [2]): 1260 nM
pKi average OX1 (Human OX1 receptor [3]): 8.3
Kb (Human OX1 receptor [4]): 20 nM

Nc1ccc(-n2nccn2)c(C(=O)N[C@H]2CCC[C@@H]2COc2ccc(F)cc2)n1 [Example 4, 6-amino-N-[(1S,2S)-2-[(4-fluorophenoxy)methyl]cyclopentyl]-3-(triazol-2-yl)pyridine-2-carboxamide]
pKi average OX2 (Human OX2 receptor [1]): 5.9
Kb (Human OX2 receptor [2]): > 1260 nM
pKi average OX1 (Human OX1 receptor [3]): 8.0
Kb (Human OX1 receptor [4]): 10 nM

CC(=O)Nc1ccc(-n2nccn2)c(C(=O)N(C)[C@H]2CCC[C@@H]2COc2ccc(F)cc2)n1 [Example 5, 6-acetamido-N-[(1S,2S)-2-[(4-fluorophenoxy)methyl]cyclopentyl]-N-methyl-3-(triazol-2-yl)pyridine-2-carboxamide]
pKi average OX2 (Human OX2 receptor [1]): 6.0
Kb (Human OX2 receptor [2]): > 1000 nM
pKi average OX1 (Human OX1 receptor [3]): 8.5
Kb (Human OX1 receptor [4]): 3.16 nM

CC(=O)Nc1ccc(-n2nccn2)c(C(=O)N[C@H]2CCC[C@@H]2COc2ccc(Cl)cc2)n1 [Example 6, 6-acetamido-N-[(1S,2S)-2-[(4-chlorophenoxy)methyl]cyclopentyl]-3-(triazol-2-yl)pyridine-2-carboxamide]
pKi average OX2 (Human OX2 receptor [1]): <5.2
Kb (Human OX2 receptor [2]): > 631 nM
pKi average OX1 (Human OX1 receptor [3]): 8.1
Kb (Human OX1 receptor [4]): 7.94 nM

CC(=O)Nc1ccc(-n2nccn2)c(C(=O)N(C(C)C)[C@H]2CCC[C@@H]2COc2ccc(F)cc2)n1 [Example 7, 6-acetamido-N-[(1S,2S)-2-[(4-fluorophenoxy)methyl]cyclopentyl]-N-isopropyl-3-(triazol-2-yl)pyridine-2-carboxamide]
pKi average OX2 (Human OX2 receptor [1]): <5.3
Kb (Human OX2 receptor [2]): > 794 nM
pKi average OX1 (Human OX1 receptor [3]): 8.1
Kb (Human OX1 receptor [4]): 25.1 nM

[2H]C([2H])(Oc1ccc(F)cc1)[C@H]1CCC[C@@H]1NC(=O)c1nc(NC(C)=O)ccc1-n1nccn1 [Example 8, 6-acetamido-N-[(1S,2S)-2-[dideuterio-(4-fluorophenoxy)methyl]cyclopentyl]-3-(triazol-2-yl)pyridine-2-carboxamide]
pKi average OX2 (Human OX2 receptor [1]): 5.8
Kb (Human OX2 receptor [2]): > 794 nM
pKi average OX1 (Human OX1 receptor [3]): 8.4
Kb (Human OX1 receptor [4]): 15.8 nM

Nc1ccc(-c2ncccn2)c(C(=O)N[C@H]2CCC[C@@H]2COc2ccc(F)cc2)n1 [Example 12, 6-amino-N-[(1S,2S)-2-[(4-fluorophenoxy)methyl]cyclopentyl]-3-pyrimidin-2-yl-pyridine-2-carboxamide]
pKi average OX1 (Human OX1 receptor [3]): 8.2
Kb (Human OX1 receptor [4]): 5.01 nM

O=C(N[C@H]1CCC[C@@H]1COc1ccc(F)cc1)c1nc(NC(=O)C2CC2)ccc1-n1nccn1 [Example 13, 6-(cyclopropanecarbonylamino)-N-[(1S,2S)-2-[(4-fluorophenoxy)methyl]cyclopentyl]-3-(triazol-2-yl)pyridine-2-carboxamide]
pKi average OX2 (Human OX2 receptor [1]): <6.0
Kb (Human OX2 receptor [2]): > 1000 nM
pKi average OX1 (Human OX1 receptor [3]): 7.8

COc1cc(F)c(CN2C(=O)N(c3cnc(OC)c(OC)c3)S(=O)(=O)c3ccccc32)c(F)c1 [[^3H]-4-(2,6-difluoro-4-methoxybenzyl)-2-(5,6-dimethoxypyridin-3-yl)-2H-1,2,4-benzothiadiazin-3(4H)-one 1,1-dioxide, reference compound]
Kd (Human OX2 receptor [1]; saturation isotherms): 0.75 nM
Kd (Human OX1 receptor [3]; saturation isotherms): 1.5 nM

Reference: patent US12240825B2, “Oxexin 1 receptor antagonists” (Heptares Therapeutics Limited, priority 2019, dated 2025)
